Measured values published in ChEMBL document CHEMBL1126370, “Neuropeptide Y (NPY) functional group mimetics: design, synthesis, and characterization as NPY receptor antagonists” (Bioorg Med Chem Lett, 1992).

Tests used:
[1] = The receptor binding activity was evaluated as the displacement of specifically bound [3H]-NPY from male Sprague-Dawley rat brain membrane homogenates; format: tissue-based
[2] = Percent maximum displacement of the [3H]NPY by the compound in the rat brain membrane was evaluated; format: cell membranes
Rattus norvegicus = organism: Rattus norvegicus; experiment: Inhibitory concentration was evaluated against the vasoconstriction induced by NPY in the rat femoral artery ring; format: functional
[3] = The receptor binding activity as the displacement of specifically bound [3H]-NPY from male Sprague-Dawley rat brain membrane homogenates; format: tissue-based
[4] = Inhibition constant to displace [3H]-NPY from rat brain membrane after treatment with 500 evaluated; format: tissue-based

**Q.** What does the source list for `N/C(=N\CCNC(=O)C(N)Cc1ccc(OCc2c(Cl)cccc2Cl)cc1)NCCSSCCN/C(N)=N/CCNC(=O)C(N)Cc1ccc(OCc2c(Cl)cccc2Cl)cc1` (stereo not given)?
**A.** IC50 [1]: 18.5 µM; Max displacement [2]: 63%; IC50 (Rattus norvegicus): 0.414 µM

**Q.** With `COc1ccccc1CNCCCCCCNCCSSCCNCCCCCCNCc1ccccc1OC` [BENEXTRAMINE] as the compound, how does the Max displacement [2] read?
**A.** 61%

**Q.** And the IC50 (Rattus norvegicus)?
**A.** 0.0431 µM

**Q.** And the IC50 [3]?
**A.** 56 µM

**Q.** With `N/C(=N\CCNC(=O)C(N)Cc1ccc(OCc2c(Cl)cccc2Cl)cc1)NCCCCCCN/C(N)=N/CCNC(=O)C(N)Cc1ccc(OCc2c(Cl)cccc2Cl)cc1` (stereo not given) as the compound, how does the IC50 [1] read?
**A.** 45.4 µM

**Q.** And the Max displacement [2]?
**A.** 100%

**Q.** And the Ki [4]?
**A.** 35.5 µM

**Q.** And the IC50 (Rattus norvegicus)?
**A.** 2.86 µM
